Data from patent US4404230A, “4-Hydroxy-1,2-Benzisothiazol-3(2H)-one-1,1-dioxides and salts thereof” (priority 1980, dated 1983).

Experiments:
taste testers = test: Determination of the relative sweetening power in comparison to saccharose; type: in vivo; conditions: compared with 3% aqueous solution of saccharose
Source text: The relative sweetening power (often also defined as degree of sweetness) of sweetening agents in comparison with saccharose (cane sugar) varies considerably with concentration. […] Therefore, for the determination of the relative sweetening power of the test compounds a 3% aqueous solution of saccharose was always used for comparison.

[1] = Determination of water-solubility; type: physicochemical
[2] = Acid-stability in 0.1 N hydrochloric acid; type: physicochemical; conditions: 1% in 0.1 N hydrochloric acid, room temperature, 27 days
Procedure: For the stability test, substance B at a concentration of 1% was dissolved in 0.1 N hydrochloric acid and kept at room temperature for 27 days. […] The solid substance was furthermore tested in daylight and at 60° C. in the absence and in the presence of light for 4 weeks.

mice [3] = test: Effect on motility of mice (sedative and stimulating effect); type: in vivo, Chbb:NMRI-mice; conditions: 200 mg/kg p.o.; for % motility: vs control
Procedure: Eight female Chbb:NMRI-mice (SPF) having a body weight from 20 to 26 g were tested in light beam cages after oral administration of the test compound in a suspension of 1% tylose. 30, 90 and 150 minutes after administration of the test compound, their motility was measured for 5 minutes each; a control group received only the solvent (tylose:carboxymethyl cellulose). The change in motility, given in percent with regard to that of the control group, was determined.

mice [4] = test: Effect on the duration of hexobarbital anesthesia in mice; type: in vivo, Chbb:NMRI-mice; conditions: 100 mg/kg p.o.
Procedure: According to Winter [Pharmacol. exp. Ther. 94, 7, (1948)], 100 mg/kg of substance B in a suspension of 1% tylose were administered perorally to 10 male Chbb:NMRI-mice (SPF) having a body weight of 20 to 26 gm. A control group received only the suspension agent. After 1 hour all animals were injected i.p. with 80 mg/kg of hexobarbital. The mice were put on a metal plate at 37° C. and the time from the beginning of the loss of the righting reflex until the recurrence of this reflex was measured as the duration of the anesthesia. This time difference was calculated in percent with regard to that of the control group.

mice [5] = test: Effect on reserpine-hypothermia in mice; type: in vivo, Chbb:NMRI-mice
Procedure: In analogy to Askew [Life Sci. 2, 275, (1963)] hypothermia was induced by s.c. administration of 3 mg/kg of reserpine in male Chbb:NMRI-mice (SPF) having a body weight of 20-26 gm. […] A control group received only the solvent p.o.; 1 to 4 hours after administration the temperature was measured every hour. The values given in the table are at average temperature values ±SD.

rats = test: Ulcerogenic effect in rats; type: in vivo, Chbb:THOM-rats; conditions: 200 mg/kg p.o.
Procedure: 200 mg/kg of substance B in 1% tylose suspension were administered perorally to 10 male and female (1:1) Chbb:THOM-rats (SPF) having an approximate body weight of 200 gm. A control group received only the suspension agent. After 4 hours all animals were killed, the stomach was dissected and inspected with regard to lesions of the mucosa.

Aspergillus niger [6] = test: Fungistasis, serial dilution test; type: cell-based; conditions: 320 μg/ml
Procedure: (§1) Substance B was tested with regard to its bacteria- and fungi-inhibiting effect by the serial dilution test and agar diffusion test.

[7] = system: Candida albicans ATCC 10231; test: Fungistasis, serial dilution test; type: cell-based; conditions: 320 μg/ml
Procedure: as §1

[8] = system: Trychophyton mentagrophytes ATCC 9129; test: Fungistasis, serial dilution test; type: cell-based; conditions: 320 μg/ml
Procedure: as §1

Aspergillus niger [9] = test: Fungistasis, agar diffusion test; type: cell-based; conditions: 16,000 μg/ml
Procedure: as §1

[10] = system: Candida albicans ATCC 10231; test: Fungistasis, agar diffusion test; type: cell-based; conditions: 16,000 μg/ml
Procedure: as §1

[11] = system: Trychophyton mentagrophytes ATCC 9129; test: Fungistasis, agar diffusion test; type: cell-based; conditions: 16,000 μg/ml
Procedure: as §1

[12] = system: Salmonella typhimurium TA 100; test: Test for mutagenic effects (AMES-system); type: cell-based
Procedure: (§2) Compound B was tested according to the AMES-system [Mutation Research 31, 347-364 (1975)] for mutagenic properties. In order to show the whole spectrum of induced molecular DNA-damage (base substitutions, frame-shift mutations, deletions) the auxotrophic bacterial strains Salmonella typhimurium TA 98, TA 100, TA 1535, TA 1537 and TA 1538 were used as genetic indicators.
(§3) The tests for all microorganisms were carried out such that the effect of the test compound on a microsomal enzyme system together with the corresponding co-factors could be tested, and furthermore to determine the effect on enzyme induction. The tests were performed without an activating system and in the presence of an activating system. For the in-vitro-activation S-9 supernatants (fractions of the endoplasmatic reticulum) of normal, i.e. not pretreated rats and of rats induced by aroclor 1254 (500 mg/kg) wer used. For the S-9 induced fraction, 3 different concentrations were tested.
(§4) Compound B was tested at concentrations of 0.25, 2.5, 5 and 10 mg/plate.

[13] = system: Salmonella typhimurium TA 1535; test: Test for mutagenic effects (AMES-system); type: cell-based
Procedure: as §2, §3, §4

[14] = system: Salmonella typhimurium TA 1537; test: Test for mutagenic effects (AMES-system); type: cell-based
Procedure: as §2, §3, §4

[15] = system: Salmonella typhimurium TA 1538; test: Test for mutagenic effects (AMES-system); type: cell-based
Procedure: as §2, §3, §4

[16] = system: Salmonella typhimurium TA 98; test: Test for mutagenic effects (AMES-system); type: cell-based
Procedure: as §2, §3, §4

[17] = system: Salmonella typhimurium TA 98, TA 100, TA 1535, TA 1537 and TA 1538; test: Test for mutagenic effects (AMES-system), all strains together; type: cell-based
Procedure: as §2, §3, §4

Salmonella typhimurium = test: Prior serial dilution test for inhibition of microorganism growth (AMES-system); type: cell-based; conditions: highest dosage used
Procedure: as §4

[18] = 0.25, 2.5, 5 and 10 mg/plate, with and without activating system

With `O=C1NS(=O)(=O)c2cccc(O)c21.[Na]` the “Relative sweetening power (Saccharose = 1)” value (taste testers) was 210, the solubility [1] was > 1 gm/10 ml of water and the “water-solubility (in words)” value [1] was “easily soluble in water”. The “stability in acid medium” value [2] was “No changes could be detected”, the “effect on motility of mice (in words)” value (mice [3]) was “did not affect the motility of mice” and the Motility of mice (mice [3]; 30-35 min) was 92 ± 21 contacts/animal. The “% motility” value (mice [3]; 30-35 min) was 102%, the Motility of mice (mice [3]; 90-95 min) was 84 ± 28 contacts/animal and the “% motility” value (mice [3]; 90-95 min) was 101%. The Motility of mice (mice [3]; 150-155 min) was 49 ± 17 contacts/animal, the “% motility” value (mice [3]; 150-155 min) was 72% and the “effect on duration of hexobarbital anesthesia (in words)” value (mice [4]) was “does not show any effect on the duration of hexobarbital anesthesia”. For the same compound, the Duration of anesthesia (mice [4]; hexobarbital 80 mg/kg i.p.) was 15.65 ± 6.32 min, the “Duration of anesthesia, % of control” value (mice [4]; hexobarbital 80 mg/kg i.p.) was 106% and the body temperature (mice [5]; 100 mg/kg p.o., 1 hour) was 26.0 °C. The body temperature (mice [5]; 100 mg/kg p.o., 2 hours) was 26.7 °C, the body temperature (mice [5]; 100 mg/kg p.o., 3 hours) was 26.6 °C and the body temperature (mice [5]; 100 mg/kg p.o., 4 hours) was 26.8 °C. The body temperature (mice [5]; 400 mg/kg p.o. [sic], 1 hour) was 24.0 °C, the body temperature (mice [5]; 400 mg/kg p.o. [sic], 2 hours) was 24.7 °C and the body temperature (mice [5]; 400 mg/kg p.o. [sic], 3 hours) was 25.3 °C. For the same compound, the body temperature (mice [5]; 400 mg/kg p.o. [sic], 4 hours) was 25.9 °C, the “effect on reserpine-induced hypothermia (in words)” value (mice [5]; 40 and 100 mg/kg p.o.) was “does not show an effect on hypothermia in mice induced by reserpine” and the “ulcerogenic effect (in words)” value (rats) was “does not show any ulcerogenic effect in rats”. For the same compound, the “Animals having stomach lesions” value (rats; 4 hours, N = 10) was 0, the inhibiting effect (Aspergillus niger [6]) was “did not show any inhibiting effect” and the inhibiting effect [7] was “did not show any inhibiting effect”. The inhibiting effect [8] was “did not show any inhibiting effect”, the inhibiting effect (Aspergillus niger [9]) was “did not show any inhibiting effect” and the inhibiting effect [10] was “did not show any inhibiting effect”. The inhibiting effect [11] was “did not show any inhibiting effect”, the spontaneous mutation rate [12, 18] was “did not lead to an increase in the spontaneous mutation rate” and the base substitutions ([12]; TA 100) was “does not induce base substitutions”. For the same compound, the spontaneous mutation rate [13, 18] was “did not lead to an increase in the spontaneous mutation rate”, the base substitutions ([13]; TA 1535) was “does not induce base substitutions” and the spontaneous mutation rate [14, 18] was “did not lead to an increase in the spontaneous mutation rate”. The frame-shift mutations ([14]; TA 1537) was “does not induce base substitutions (S. typhimurium TA 1535, TA 100) or frame-shift mutations”, the spontaneous mutation rate [15, 18] was “did not lead to an increase in the spontaneous mutation rate” and the frame-shift mutations ([15]; TA 1538) was “does not induce base substitutions (S. typhimurium TA 1535, TA 100) or frame-shift mutations”. For the same compound, the spontaneous mutation rate [16, 18] was “did not lead to an increase in the spontaneous mutation rate”, the frame-shift mutations ([16]; TA 98) was “does not induce base substitutions (S. typhimurium TA 1535, TA 100) or frame-shift mutations” and the “effect on enzyme induction and the activating fraction upon the reversion rate” value [17] was “No effect on enzyme induction and the activating fraction upon the reversion rate was detected”. The “mutagenicity, overall” value [17] was “not mutagenic”, the “colonies counted on the test plates” value ([17]; each test strain) was “showed the normal spontaneous range for each test strain” and the “inhibition of the microorganism growth” value (Salmonella typhimurium) was “did not show an inhibition of the microorganism growth”.
